Experimental data taken from ChEMBL document CHEMBL4732249, “Design, synthesis and biological evaluation of 2-aminoquinazolin-4(3H)-one derivatives as potential SARS-CoV-2 and MERS-CoV treatments” (Bioorg Med Chem Lett, 2021).

Tested on: not listed separately
Experiment: Selective index, ratio of CC50 for African green monkey Vero cells to IC50 for MERS-CoV infected in African green monkey Vero cells
Settings: not given

Going from O=c1[nH]c(Nc2cc(F)cc(F)c2)nc2cccc(O)c12 to O=c1[nH]c(Nc2cc(F)cc(F)c2)nc2cc(Cl)ccc12, the “Ratio CC50/IC50” value rises from 22 to 65.

First: O=c1[nH]c(Nc2cc(Cl)cc(Cl)c2)nc2c(O)cccc12
Second: O=c1[nH]c(Nc2cc(Cl)cc(Cl)c2)nc2cc([N+](=O)[O-])ccc12
The “Ratio CC50/IC50” value of the first is higher: 14 for the first, 1 for the second.

For O=c1[nH]c(Nc2cc(F)cc(F)c2)nc2c(Cl)c(Cl)ccc12, the “Ratio CC50/IC50” value was 30.

Tested on: Vero
Experiment: Cytotoxicity against African green monkey Vero cells assessed as reduction of cell viability by WST-1 assay
Type: cell-based
Settings: chlorocebus sabaeus

O=c1[nH]c(Nc2cc(F)cc(F)c2)nc2cccc(O)c12 and O=c1[nH]c(Nc2cc(F)cc(F)c2)nc2cc(Cl)ccc12 cannot be ordered by CC50: > 25000 nM for the first, ≥ 18000 nM for the second.

O=c1[nH]c(Nc2cc(Cl)cc(Cl)c2)nc2c(O)cccc12 and O=c1[nH]c(Nc2cc(Cl)cc(Cl)c2)nc2cc([N+](=O)[O-])ccc12 cannot be ordered by CC50: > 25000 nM for the first, > 25000 nM for the second.

For O=c1[nH]c(Nc2cc(F)cc(F)c2)nc2c(Cl)c(Cl)ccc12, the CC50 was > 25000 nM.

Tested on: Middle East respiratory syndrome-related coronavirus
Experiment: Antiviral activity against MERS-CoV infected in African green monkey Vero cells assessed as inhibition of viral infection by measuring reduction in spike protein level by immunofluorescence microscopic analysis
Type: functional, organism-based
Settings: not given

Going from O=c1[nH]c(Nc2cc(F)cc(F)c2)nc2cccc(O)c12 to O=c1[nH]c(Nc2cc(F)cc(F)c2)nc2cc(Cl)ccc12, the IC50 falls from 1100 nM to 390 nM (2.8-fold). The second is the more potent here.

Compared with O=c1[nH]c(Nc2cc(Cl)cc(Cl)c2)nc2c(O)cccc12, O=c1[nH]c(Nc2cc(Cl)cc(Cl)c2)nc2cc([N+](=O)[O-])ccc12 is higher in IC50: 1700 nM for the first, > 25000 nM for the second. The first is the more potent here.

O=c1[nH]c(Nc2cc(F)cc(F)c2)nc2c(Cl)c(Cl)ccc12 showed an IC50 of 830 nM.

Tested on: SARS-CoV-2
Experiment: Antiviral activity against SARS-CoV-2 infected in African green monkey Vero cells assessed as inhibition of viral infection by measuring nucleocapsid protein level by immunofluorescence microscopic analysis
Type: functional, organism-based
Settings: Severe acute respiratory syndrome coronavirus 2, Vero

Compared with O=c1[nH]c(Nc2cc(F)cc(F)c2)nc2cccc(O)c12, O=c1[nH]c(Nc2cc(F)cc(F)c2)nc2cc(Cl)ccc12 is 2-fold lower in IC50: 470 nM for the first, 240 nM for the second. The second is the more potent here.

O=c1[nH]c(Nc2cc(Cl)cc(Cl)c2)nc2c(O)cccc12 and O=c1[nH]c(Nc2cc(Cl)cc(Cl)c2)nc2cc([N+](=O)[O-])ccc12 are within 1.5-fold of each other in IC50: 370 nM for the first, 510 nM for the second.

Work on O=c1[nH]c(Nc2cc(F)cc(F)c2)nc2c(Cl)c(Cl)ccc12 yielded an IC50 of 250 nM.

Tested on: not listed separately
Experiment: Selective index, ratio of CC50 for African green monkey Vero cells to IC50 for SARS-CoV-2 infected in African green monkey Vero cells
Settings: not given

Compared with O=c1[nH]c(Nc2cc(F)cc(F)c2)nc2cccc(O)c12, O=c1[nH]c(Nc2cc(F)cc(F)c2)nc2cc(Cl)ccc12 is higher in “Ratio CC50/IC50” value: 54 for the first, 74 for the second.

Compared with O=c1[nH]c(Nc2cc(Cl)cc(Cl)c2)nc2c(O)cccc12, O=c1[nH]c(Nc2cc(Cl)cc(Cl)c2)nc2cc([N+](=O)[O-])ccc12 is lower in “Ratio CC50/IC50” value: 65 for the first, 49 for the second.

For O=c1[nH]c(Nc2cc(F)cc(F)c2)nc2c(Cl)c(Cl)ccc12, the “Ratio CC50/IC50” value was 98.
